Patent US4242358A, “Method of treatment of algiae” (Societe de Recherches Industrielles (Sori), priority 1979, dated 1980)

Legend:
[1] = LD0 rat (acute toxicity); type: in vivo
[2] = LD50 mice per os (acute toxicity); conditions: mouse, in vivo, po
[3] = system: antalgic activity; test: ED50 mice per os antalgic activity; type: in vivo; conditions: Mus musculus, po
[4] = LD-50 mice i.p. (acute toxicity); conditions: mouse, in vivo, ip
[5] = clinical double blind test as an antalgic agent; type: in vivo; conditions: 41 patients, 400 mg per day, tablets, 20 days
Description: The compound of Example 1 has been tested clinically as an antalgic agent on 41 patients. A double blind test was carried out, using placebos and a dose of 400 mg per day of the active compound, administered as tablets.

[6] = kidney troubles / tolerance; type: in vivo; conditions: footnote (a), in connection with ED50 mice per os
[7] = system: cramping induced by phenylbenzoquinone; test: antalgic activity: percentage inhibition of cramping induced by phenylbenzoquinone, mice i.p.; type: in vivo; conditions: dose one tenth of LD-50 mice i.p., over 5 minutes, phenylbenzoquinone 0.02% i.p.
Description: The antalgic activity of the compounds of formula I was determined by measuring the cramping induced by phenylbenzoquinone, as described by Siegmund et al, Proc. Soc. Exp. Biol. Med. ([…]) 95, 729. A painful reaction, characterized by twisting movements and elongation of the abdomen, with scraping of the rear paws, was introduced by the intraperitoneal administration of a 0.02% w/v solution of phenyl-benzoquinone in […] at a rate of 0.5 ml/20 g body weight. The activity was measured by the percentage inhibition in the number of painful symptons over 5 minutes.

| SMILES | LD50 [4] | Percentage of diminution of cramping, Tested compound [7] | also measured |
| --- | --- | --- | --- |
| CC(C)(Oc1cccc(C(=O)c2ccccc2)c1)C(=O)O [Example 1, 2-(3-benzoyl)-phenoxy-2-methylpropionic acid] | 350 mg/kg | 95% | KD0 rat i.p. ([1]; i.p.): 540 mg/kg; LD0 rat per os ([1]; per os): higher than 1600 mg/kg; LD50 [2]: 350 mg/kg; ED50 [3]: 35 mg/kg; tolerance of the product ([5]; double blind): excellent; activity good, cases ([5]; double blind, patients who had received the active compound): 80%; relief of symptoms ([5]; patients who had received the active compound): the symptoms had been relieved; kidney troubles [6]: without kidney troubles |
| O=C(O)COc1cccc(C(=O)c2ccc(Cl)cc2Cl)c1 [Example 9] | 350 mg/kg | 94% |  |
| COc1ccc(C(=O)c2cccc(OC(C)(C)C(=O)O)c2)cc1 [Example 2] | 300 mg/kg | 97% |  |
| O=C(OCC(O)CO)c1ccccc1Nc1ccnc2cc(Cl)ccc12 (stereo not drawn) [Glaphenine, 2,3-dihdroxypropyl N-(7-chloro-4-quinolyl)-anthranilate, reference compound] |  |  | ED50 [3]: 25 mg/kg; kidney troubles [6]: induces kidney troubles |
| Cc1ccc(C(=O)c2cccc(OC(C)C(=O)O)c2)cc1 (stereo not drawn) [Example 13] | 700 mg/kg | 98% |  |
| Cc1ccc(C(=O)c2cccc(OC(C)(C)C(=O)O)c2)cc1C [Example 5] | 450 mg/kg | 100% |  |
| Cc1ccc(C(=O)c2cccc(OCC(=O)O)c2)cc1 [Example 12] | 450 mg/kg | 92% |  |
| Cc1ccc(C(=O)c2cccc(OC(C)(C)C(=O)O)c2)c(C)c1 [Example 10] | 600 mg/kg | 69% |  |
| Cc1ccc(C(=O)c2cccc(OC(C)(C)C(=O)O)c2)cc1 [Example 4] | 400 mg/kg | 66% |  |
| CC(C)(Oc1cccc(C(=O)c2cccc(C(F)(F)F)c2)c1)C(=O)O [Example 3] | 300 mg/kg | 43% |  |
| CC(Oc1cccc(C(=O)c2ccccc2)c1)C(=O)O (stereo not drawn) [Example 6] | 770 mg/kg | 100% |  |
| CC(Oc1cccc(C(=O)c2ccc(Cl)cc2Cl)c1)C(=O)O (stereo not drawn) [Example 8] | 800 mg/kg | 100% |  |
| CC(Oc1cccc(C(=O)c2cccc(C(F)(F)F)c2)c1)C(=O)O (stereo not drawn) [Example 7] | 350 mg/kg | 61% |  |
| Cc1ccccc1C(=O)c1cccc(OC(C)(C)C(=O)O)c1 [Example 11] | 600 mg/kg | 70% |  |
